According to patent US20160022556A1, “1,5-ANHYDRO-D-GLUCITOL-CONTAINING COLLAGEN PRODUCTION ACCELERATOR” (NATIONAL UNIVERSITY CORPORATION UNIVERSITY OF TOYOMA, priority 2013, published 2016):

What was measured:
[1] = system: normal human fibroblasts; test: Type I collagen synthesis of normal human fibroblasts (ELISA of culture supernatant; protein by BCA method); assay type: cell-based; conditions: for Type I Collagen, Mean S.D.: 24-hour culture, n = 6, untreated control 7.03 ± 0.25
Procedure: The action of 1,5-AG on the synthesis of type I collagen of dermal fibroblasts is evaluated. Specifically, normal human fibroblasts were spread on a 96-well microplate using Dulbecco's modified eagle medium (DMEM) containing 0.5% fetal bovine serum (FBS). The fibroblasts were cultured at 37° C. for 24 hours, and thereafter the medium was exchanged with a 0.5% FBS-containing DMEM containing a given concentration of samples. As a positive control (P.C.), the same treatment was carried out with magnesium ascorbyl phosphate. After the 24-hour culture in the sample-containing medium, the culture supernatant was collected and subjected to ELISA. Also, the amount of protein was measured in accordance with bicinchoninic acid (BCA) method with PIERCE (manufactured by Pierce Biotechnology Inc.).
The culture supernatant and the collagen solutions for calibration curve were each dispensed in each well of high-adsorbent ELISA plate, and allowed to coat at 4° C. over one day and night. Thereafter, the coated plate was blocked at 37° C. for 1 hour with a 1% bovine serum albumin (BSA) solution. The primary antibody reaction was carried out by diluting Anti-Human Collagen Type I antibody (manufactured by Bio-Rad Laboratories, Inc., Rabbit) with a 0.3% BSA solution, and the dilution was added to each well and allowed to react at 37° C. for 1 hour. The secondary antibody reaction was carried out by diluting Histofine MAX-PO® (manufactured by NICHIREI, Rabbit) with a phosphate buffer, and the dilution was added to each well, and allowed to react at 37° C. for 1 hour. Next, 0.3 mg/mL of phosphate-citrate buffer (0.1 M, pH 4.0) containing 2,2′-azinobis(3-ethylbenzothiazoline-6-sulfonic acid)diammonium salt (ABTS) and a 0.03% hydrogen peroxide was added to each well and allowed to react for 20 minutes, and the absorbance of the reaction mixture was measured at 405 nm with a microplate reader.
The amount of the collagen in the culture supernatant was calculated from the calibration curve prepared from commercially available collagen. By dividing the amount of collagen in the medium by the amount of proteins in all the cells, the amount of collagen synthesized per unit protein amount was calculated. The amount of collagen synthesized at each concentration was subjected to a significance test using a Student-t test, and a difference with an untreated control was evaluated.

[2] = system: skin surface of human; test: Moisturizing effect: water content of skin surface in short-term use test of human volunteers (SKICON200); assay type: in vivo; conditions: for Water Content of Skin Surface, Mean (%) SD, relative value where the initial value was defined as 100%: 2.5 μL/cm^2, medial part of forearm, n = 4
Procedure: The moisturizing effects of the 1,5-AG are evaluated by a short-term use test of human volunteers. Specifically, with 5 males of ages of 26 to 34 as test individuals, an aqueous solution of a sample listed in Table 2 in a given concentration was applied in an amount of 2.5 μL/cm^2 at a medial part of forearm, and the water content of the skin surface was measured in accordance with the following method.
<Measurement of Water Content of Skin Surface>
Each test individual washed his medial part of forearm with a given detergent, and was conditioned for 15 minutes in a thermohygrostat (room temperature: 22° C., humidity: 45%). Thereafter, an initial value of the water content of the skin surface was measured with SKICON200 (manufactured by I.B.S. Co., Ltd., corneometer). Next, each of the test samples and purified water were coated according to a coating method. Further, uncoated sites were set. Water contents were measured immediately after the sample coating, after 15 minutes, after 30 minutes, and after 45 minutes. The water content of the uncoated sites was measured matching the measurement time at the sample-coated sites. The change in the water contents of each site to be tested was expressed in a relative value where an initial value was defined as 100%. The difference in the water content of skin surface in each test individual before and after the use of test samples was subjected to a significance test according to a Student-t test. The data for test individuals of which water contents of skin surface of the uncoated sites increased with passage of time were discarded as abnormal values, and the results calculated using the measurement values of four individuals are shown in Table 2 and FIG. 2.

Compound | Type I Collagen, Mean S.D. ([1]; 313 μg/mL sample) [ng/μg protein] | Type I Collagen, Mean S.D. ([1]; 625 μg/mL sample) [ng/μg protein] | Type I Collagen, Mean S.D. ([1]; 1250 μg/mL sample) [ng/μg protein] | amount of type I collagen synthesized in the normal human fibroblasts ([1]; versus untreated control, Student-t test) | Water Content of Skin Surface, Mean (%) SD, relative value where the initial value was defined as 100% ([2]; 2% aqueous solution, After 15 min) [%] | Water Content of Skin Surface, Mean (%) SD, relative value where the initial value was defined as 100% ([2]; 2% aqueous solution, After 30 min) [%] | Water Content of Skin Surface, Mean (%) SD, relative value where the initial value was defined as 100% ([2]; 2% aqueous solution, After 45 min) [%] | Water Content of Skin Surface, Mean (%) SD, relative value where the initial value was defined as 100% ([2]; 2% aqueous solution, Immediately after Coating) | action on the water content of skin surface (moisturizing property) ([2]; test sample of 2% 1,5-AG, human volunteers) | Water Content of Skin Surface, Mean (%) SD, relative value where the initial value was defined as 100% ([2]; 1% aqueous solution, After 15 min) [%] | Water Content of Skin Surface, Mean (%) SD, relative value where the initial value was defined as 100% ([2]; 1% aqueous solution, After 30 min) [%] | Water Content of Skin Surface, Mean (%) SD, relative value where the initial value was defined as 100% ([2]; 1% aqueous solution, After 45 min) [%] | Water Content of Skin Surface, Mean (%) SD, relative value where the initial value was defined as 100% ([2]; 1% aqueous solution, Immediately after Coating)
OC[C@H]1OC[C@H](O)[C@@H](O)[C@@H]1O [1,5-AG, 1,5-anhydro-D-glucitol] | 7.81 ± 0.60 | 8.28 ± 0.50 | 8.31 ± 0.49 | significantly increased | 154.2 ± 12.3 | 180.3 ± 36.2 | 176.7 ± 15.8 | 2,535.4 ± 749.6% | action of increasing the water content of skin surface | – | – | – | –
Sodium Hyaluronate [reference compound] | – | – | – | – | – | – | – | – | – | 122.6 ± 15.7 | 116.9 ± 23.7 | 130.1 ± 10.3 | 3,101.8 ± 1,716.3%
